Series [1] has as its system Common Cutworm (Spodoptera litura). Nature of the series: whole plant or invertebrate. As for the experimental part: They were diluted to a predetermined concentration with water containing a spreader (Shin-Rinoh 0.040) and subjected to the test by themselves or as a mixed liquid.
A leaf segment of cabbage was dipped for about 10 seconds in an insecticidal solution and dried in air. A wet filter paper was laid in a petri dish having a diameter of 9 cm, and the dried leaf segment of cabbage was placed thereon. 10 Second-instar larvae of common cutworm were released therein and after putting a cover, left in a constant temperature chamber at 25° C. with lightening. On the 5th or 6th day after release, dead larvae were counted, and the mortality was calculated by the following equation. Here, the insects that were moribund were counted as dead insects. Mortality (%)={(number of dead insects)/(number of surviving insects+number of dead insects)}×100
Further, the theoretical mortality (%) can be calculated from the colby's formula.

Series [2] relates to Green Rice Leafhopper (Nephotettix cincticeps). Nature of the series: Test on Controlling Effects Against Green Rice Leafhopper (rice seedling dip). It counts as in vivo. An excerpt: The root was wrapped with absorbent cotton wet with water, and the rice seedling was put in a test tube.
Series [3] concerns Green Peach Aphid (Myzus persicae). The series can be described thus: Test on Controlling Effects Against Green Peach Aphid (radish leaf dip). The following applies: third day after the dipping. It counts as in vivo. The protocol: Japanese radish leaf (cut into about 2 cm×3 cm) was put in a test tube in which water was put, and Larvae of green peach aphid were released on the leaf. […] On the third day after the dipping, dead larvae were counted, and the mortality was calculated from the following equation. Aphids that dropped from leaf or were moribund were included in the number of dead. […] Mortality (%)=(number of dead insects/number of treated insects)×100

[4] abbreviates: Spodoptera litura, in Brassica oleracea, foliar.

Data on four molecules can be found in US10039284B2, “Pesticidal compositions” (priority 2006, dated 2018).

“And” between values parts separate entries of the source, which are not always exact repeats. Equal values may be shown once. Read-outs that look alike come from different tables or passages of the source.

Regarding `CC(NC(=O)c1cc(Cl)cc(Br)c1NC(=O)c1cc(Br)nn1-c1ncccc1Cl)C1CC1` (stereo not drawn) [Compound No. 1, N-[2-bromo-4-chloro-6-[[α-methyl-(cyclopropylmethyl)amino]carbonyl]-phenyl]-3-bromo-1-(3-chloro-2-pyridyl)-1H-pyrazole-5-carboxamide], the “Mortality (%)” value was 100% and 90% and 70% and 60% and 50% in series [1] (Compound No. 1 alone 0.02 ppm, 5th or 6th day); 30% and 50% in series [2] (Compound No. 1 alone 0.4 ppm, 5th or 6th day); 8% and 11% in series [3] (Compound No. 1 alone 0.8 ppm); 46% and 28% in series [3] (Compound No. 1 alone 1.5 ppm).
In series [1] (setting [4]), `C[C@@H](NC(=O)C(C#N)C(C)(C)C)c1ccc(Cl)cc1Cl` (stereo partly drawn) [Diclocymet, diclocymet] returned a mortality at 18.8 ppm of 0%, a mortality at 37.5 ppm of 0% and a mortality at 75 ppm of 0%. Moreover, in series [2] (Nephotettix cincticeps), the mortality at 0.4 ppm came to 0% and the mortality at 0.8 ppm came to 0%.
For the molecule `C=CCOC1=NS(=O)(=O)c2ccccc21` [Probenazole, probenazole], the mortality at 200 ppm was 0% in series [2] (Nephotettix cincticeps) and 13% in series [3] (Myzus persicae, foliar, other pesticide alone 200 ppm). For the same molecule, the mortality at 100 ppm in series [3] (Myzus persicae, foliar, other pesticide alone 100 ppm) came out at 0%.
Consider `O=C1OCc2c(Cl)c(Cl)c(Cl)c(Cl)c21` [Fthalide, fthalide], for which the mortality at 50 ppm in series [1] (setting [4]) was 0%; in series [2] (Nephotettix cincticeps, other pesticide alone 50 ppm, 5th or 6th day), 0%. Besides, the mortality at 100 ppm in series [1] (setting [4]) is 0%; in series [2] (Nephotettix cincticeps, other pesticide alone 100 ppm, 5th or 6th day), 0%. The mortality at 200 ppm turned out to be 0% in series [1] (setting [4]) and 0% in series [2] (Nephotettix cincticeps, other pesticide alone 200 ppm, 5th or 6th day, read-out: Mortality (%)).

For orientation: mortality means the share of the test organisms that died.
